# Measurements as given in paper PMC11674187, “Inhibitory Effects of Cenobamate on Multiple Human Cardiac Ion Channels and Possible Arrhythmogenic Consequences” (Biomolecules, 2024).
# Values joined by “and” are separate entries in the source; they are usually repeats but may differ in a detail not shown here. Identical values can stand only once. Like-named read-outs stand apart in the source and are kept apart here.
# Legend:
# hNav1.7 = test system: hNav1.7; parameters: method as in ref [5] p. 8; conditions: hNav1.7 in HEK293 cells, ref [5] p. 8, cited from earlier work
# hKv7.1 + minK = target: T1, hKv7.1 + minK (Homo sapiens, UniProt P51787); experiment: Whole-cell patch-clamp on HEK293T cells, IKs; type: cell-based; conditions: for inhibition at 200 µM: HEK-293T
# T1 construct: host or cells: HEK293T
# Procedure: (§1) Experiments were performed on HEK293T cell lines with persistent/inducible expression of different human cardiac ion channel isoforms: hNav1.5 and hKv7.1 + minK (Anaxon AG, Bern, Switzerland), hCav1.2 (α1c + β2 + α2δ1) (B’SYS GmbH, Witterswil, Switzerland), and hKv11.1 (hERG) (Cytocentrics Bioscience GmbH, Rostock, Germany). The cell lines were grown in standard conditions (37 °C, 5% CO2, 90% humidity) in DMEM:F12 medium (D8900, Sigma-Aldrich, Burlington, MA, USA) buffered with 15 mM HEPES, containing 3.15 g/L D-glucose and 0.055 g/L sodium pyruvate, supplemented with 1.2 g/L sodium bicarbonate, 10% fetal bovine serum (F2442, Sigma-Aldrich, Burlington, MA, USA), 2 mM L-glutamine (G7513, Sigma-Aldrich, Burlington, MA, USA), 1% penicillin–streptomycin (P4333, Sigma-Aldrich, Burlington, MA, USA), and with specific antibiotics for selection of transfected cells or induction of gene expression according to manufacturers’ instructions. The medium was changed every 2–3 days and the cells were passed weekly upon detachment with trypsin–EDTA solution. All cell culture media and solutions were sterile filtered with 0.22 μm polyvinylidene fluoride filters. Ncyte® vCardiomyocytes (Ncardia, Leiden, The Netherlands) were cultured in 24-well plates precoated with bovine fibronectin, following manufacturer’s instructions. For the experiments, cardiomyocytes were detached as described previously and plated on ϕ 10 mm glass coverslips, like the other cell lines.
# Manual whole-cell patch-clamp experiments were performed at room temperature, with equipment as described in previous studies. Pipettes were pulled from Clark borosilicate glass capillaries with inner filament (GC150F-10, Harvard Apparatus, Holliston, MA, USA) and had typical resistances of 2–3 MΩ. Recordings were performed with a WPC-100 resistive feedback amplifier (ESF electronic, Göttingen, Germany) or an Axopatch 200B amplifier (Axon Instruments—Molecular Devices, San Jose, CA, USA) connected to a Digidata 1322A interface driven by the pClamp 8.2 Clampex module (Axon Instruments, part of Molecular Devices, San Jose, CA, USA). […]
# IKr (hERG) = conditions: read-out: apparent IC50 for IKr (hERG); used for further computations; ref [5] p. 10; cited from earlier work
# hNav1.5 [1] = target: T2, hNav1.5 (Homo sapiens, UniProt Q14524); experiment: Whole-cell patch-clamp on HEK293T cells, peak INa (standard, activation and inactivation protocols); type: cell-based
# T2 construct: host or cells: HEK293T
# Procedure: as §1
# (§2) Manual whole-cell patch-clamp experiments were performed at room temperature, with equipment as described in previous studies. Pipettes were pulled from Clark borosilicate glass capillaries with inner filament (GC150F-10, Harvard Apparatus, Holliston, MA, USA) and had typical resistances of 2–3 MΩ. Recordings were performed with a WPC-100 resistive feedback amplifier (ESF electronic, Göttingen, Germany) or an Axopatch 200B amplifier (Axon Instruments—Molecular Devices, San Jose, CA, USA) connected to a Digidata 1322A interface driven by the pClamp 8.2 Clampex module (Axon Instruments, part of Molecular Devices, San Jose, CA, USA). For different types of ion channel, we applied specific voltage-clamp protocols as follows: • - For hERG, a standard two-step activation protocol was used: holding at −70 mV, a 100 ms step at −50 mV used as current reference for measurements, a 2 s depolarizing step at +40 mV, followed by a 2 s step at −50 mV to elicit the peak hERG current by rapid recovery from inactivation, repeated sweeps at 10 s intervals, plus specific protocols to assess the voltage dependence of activation and inactivation, as described in Thomet et al., 2021 [11]. • - For hKv7.1 + minK, a general two-step activation protocol was used: holding at −110 mV, a 250 ms step at −80 mV with a brief (50 ms) step at −90 mV at the middle to monitor seal quality, a 3000 ms depolarizing step at +60 mV, followed by a 1000 ms step at −50 mV; repeated sweeps at 20 s intervals. • - For hCav1.2, a pharmacology protocol with holding at −80 mV, a first 100 ms step at −50 mV and a second 200 ms step at 0 mV, repeated sweeps at 20 s intervals with drug application after 5 sweeps if current levels were steady, plus an activation–inactivation protocol with holding at −80 mV, 1000 ms depolarizing steps from −80 to +50 mV in 10 mV increments, followed by 250 ms steps at +10 mV and a return to −80 mV; 14 sweeps at 20 s intervals. • - For hNav1.5, multiple voltage protocols were used, including the following: • - A standard pharmacology protocol with holding at −90 mV, a 20 ms step at −110 mV for seal monitoring, a 40 ms activation step at −10 mV, and repeated sweeps at 1 s intervals. […]
# neuronal Na+ channels = test system: neuronal Na+ channels; parameters: method as in PMID 33993416; conditions: ref [6]; read-out: IC50 on late (persistent) neuronal Na+ current; cited from earlier work
# [2] = cited from earlier work
# hNav1.5 [3] = target: T2, hNav1.5; experiment: Whole-cell patch-clamp on HEK293T cells, late INa (CiPA-like protocol with ATX-II); type: cell-based
# Procedure: as §1, §2
# [4] = mouse; ref [5] p.10; cited from earlier work
# T2 sequence (Q14524 whole entry): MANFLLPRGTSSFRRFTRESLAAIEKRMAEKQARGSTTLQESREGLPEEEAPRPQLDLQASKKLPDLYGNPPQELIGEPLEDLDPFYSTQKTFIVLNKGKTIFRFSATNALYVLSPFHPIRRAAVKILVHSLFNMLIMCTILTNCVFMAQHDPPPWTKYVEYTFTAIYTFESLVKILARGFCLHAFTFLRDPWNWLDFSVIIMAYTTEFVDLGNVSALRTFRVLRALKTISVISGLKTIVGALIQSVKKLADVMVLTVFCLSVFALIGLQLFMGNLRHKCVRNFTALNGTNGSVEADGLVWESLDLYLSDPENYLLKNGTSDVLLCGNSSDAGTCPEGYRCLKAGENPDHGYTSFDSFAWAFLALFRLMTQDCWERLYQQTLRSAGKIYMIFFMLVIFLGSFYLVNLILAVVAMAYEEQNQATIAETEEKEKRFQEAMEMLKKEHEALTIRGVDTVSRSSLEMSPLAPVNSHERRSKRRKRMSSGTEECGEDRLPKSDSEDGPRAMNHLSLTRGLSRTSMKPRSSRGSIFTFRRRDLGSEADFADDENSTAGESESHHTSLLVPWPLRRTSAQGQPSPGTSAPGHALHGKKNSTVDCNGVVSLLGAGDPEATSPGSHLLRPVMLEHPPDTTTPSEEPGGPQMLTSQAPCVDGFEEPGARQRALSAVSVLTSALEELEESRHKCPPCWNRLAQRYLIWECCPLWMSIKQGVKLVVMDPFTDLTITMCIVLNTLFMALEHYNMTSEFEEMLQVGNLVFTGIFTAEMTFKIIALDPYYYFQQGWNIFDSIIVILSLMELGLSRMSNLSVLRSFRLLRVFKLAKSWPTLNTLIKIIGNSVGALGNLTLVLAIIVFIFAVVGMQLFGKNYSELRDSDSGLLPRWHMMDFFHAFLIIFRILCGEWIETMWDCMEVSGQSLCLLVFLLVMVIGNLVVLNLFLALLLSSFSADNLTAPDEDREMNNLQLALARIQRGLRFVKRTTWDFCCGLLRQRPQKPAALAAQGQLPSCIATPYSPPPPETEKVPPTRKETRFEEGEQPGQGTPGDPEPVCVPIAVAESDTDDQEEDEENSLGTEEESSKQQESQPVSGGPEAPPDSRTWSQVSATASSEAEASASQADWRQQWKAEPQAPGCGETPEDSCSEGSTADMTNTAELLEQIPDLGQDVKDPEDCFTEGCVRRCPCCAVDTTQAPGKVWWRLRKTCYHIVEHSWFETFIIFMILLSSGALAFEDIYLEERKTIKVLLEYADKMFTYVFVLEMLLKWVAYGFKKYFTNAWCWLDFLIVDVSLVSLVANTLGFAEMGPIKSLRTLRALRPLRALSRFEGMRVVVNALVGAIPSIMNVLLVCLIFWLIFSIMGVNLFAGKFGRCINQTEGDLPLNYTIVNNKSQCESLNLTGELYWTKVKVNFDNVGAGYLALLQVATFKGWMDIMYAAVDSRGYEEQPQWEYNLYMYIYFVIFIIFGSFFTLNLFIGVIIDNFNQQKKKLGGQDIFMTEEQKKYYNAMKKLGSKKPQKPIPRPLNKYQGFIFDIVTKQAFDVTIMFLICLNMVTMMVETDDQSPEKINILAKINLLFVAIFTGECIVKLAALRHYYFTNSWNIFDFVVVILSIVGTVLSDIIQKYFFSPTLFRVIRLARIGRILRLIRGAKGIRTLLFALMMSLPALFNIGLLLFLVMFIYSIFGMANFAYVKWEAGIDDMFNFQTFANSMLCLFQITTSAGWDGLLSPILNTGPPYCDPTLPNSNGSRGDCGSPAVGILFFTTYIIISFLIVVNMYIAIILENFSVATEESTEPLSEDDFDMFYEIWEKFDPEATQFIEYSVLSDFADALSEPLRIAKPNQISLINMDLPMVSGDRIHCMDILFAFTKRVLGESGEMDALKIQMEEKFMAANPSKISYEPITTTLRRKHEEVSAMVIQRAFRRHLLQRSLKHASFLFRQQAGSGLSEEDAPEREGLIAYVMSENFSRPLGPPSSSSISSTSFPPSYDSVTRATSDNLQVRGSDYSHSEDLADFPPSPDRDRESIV
# T1 sequence (P51787 whole entry): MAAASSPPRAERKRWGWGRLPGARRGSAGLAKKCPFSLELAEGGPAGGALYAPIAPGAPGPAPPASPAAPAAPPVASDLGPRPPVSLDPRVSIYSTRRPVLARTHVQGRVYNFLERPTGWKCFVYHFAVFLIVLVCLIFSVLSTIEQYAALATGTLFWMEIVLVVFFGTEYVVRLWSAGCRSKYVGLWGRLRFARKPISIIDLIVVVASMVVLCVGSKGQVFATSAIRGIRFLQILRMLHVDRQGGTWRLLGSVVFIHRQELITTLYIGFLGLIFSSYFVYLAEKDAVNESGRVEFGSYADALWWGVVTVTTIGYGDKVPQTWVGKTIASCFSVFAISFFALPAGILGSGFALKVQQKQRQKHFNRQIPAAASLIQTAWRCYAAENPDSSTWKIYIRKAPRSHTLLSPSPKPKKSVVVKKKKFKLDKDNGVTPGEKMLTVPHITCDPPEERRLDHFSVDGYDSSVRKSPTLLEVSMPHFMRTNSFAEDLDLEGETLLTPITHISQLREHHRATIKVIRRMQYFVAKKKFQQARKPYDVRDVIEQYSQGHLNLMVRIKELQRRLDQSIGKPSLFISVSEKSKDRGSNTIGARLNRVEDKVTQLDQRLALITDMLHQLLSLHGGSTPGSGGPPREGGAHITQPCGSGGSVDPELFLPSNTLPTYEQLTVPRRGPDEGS
smiles,measurement,setting,value
NC(=O)O[C@@H](Cn1ncnn1)c1ccccc1Cl [cenobamate],IC50,hNav1.7; read-out: IC50 on late (persistent) INa,41.8 µM
same,IC50,hNav1.7; read-out: estimated IC50 on peak (transient) Na+ current,> 500 µM
same,IC50,hKv7.1 + minK,> 200 µM
same,inhibition at 200 µM,"hKv7.1 + minK; cenobamate 200 µM, mean (SD), n = 8, not corrected for control rundown 23.66%, read-out: average inhibition of IKs plateau current at +60 mV",36.7 ± 13%
same,inhibition at 200 µM,"hKv7.1 + minK; cenobamate 200 µM, read-out: estimated net average IKs inhibition (cenobamate 200 µM − control)",13%
same,average inhibition of IKs plateau current at +60 mV,"hKv7.1 + minK; cenobamate 200 µM, mean (SD), n = 8, not corrected for control rundown 23.66%",36.68 ± 13.02%
same,IC50,IKr (hERG),1870 µM
same,inhibition at 10 µM,"hNav1.5 [1]; HEK-293T, cenobamate 10 µM, read-out: % INa inhibition (peak), mean (Table S2)",8.6%
same,inhibition at 10 µM,"hNav1.5 [1]; HEK-293T, cenobamate 10 µM, read-out: % INa inhibition (peak), single experiments (Table S2)",8.58%
same,inhibition at 40 µM,"hNav1.5 [1]; HEK-293T, cenobamate 40 µM, read-out: % INa inhibition (peak), mean (Table S2)",37.7%
same,inhibition at 100 µM,"hNav1.5 [1]; HEK-293T, cenobamate 100 µM, read-out: % INa inhibition (peak), mean (Table S2)",49%
same,inhibition at 100 µM,"hNav1.5 [1]; HEK-293T, cenobamate 100 µM, read-out: % INa inhibition (peak), single experiments (Table S2)",52.7%
same,inhibition at 200 µM,"hNav1.5 [1]; HEK-293T, cenobamate 200 µM, read-out: % INa inhibition (peak), mean (Table S2)",69.9%
same,inhibition at 200 µM,"hNav1.5 [1]; HEK-293T, cenobamate 200 µM, standard protocol, step at -10 mV, initial set, mean (SD), n = 6, read-out: average inhibition of peak INa",69.5%
same,inhibition at 1000 µM,"hNav1.5 [1]; HEK-293T, cenobamate 1000 µM, read-out: % INa inhibition (peak), mean (Table S2)",89.3%
same,inhibition at 1000 µM,"hNav1.5 [1]; HEK-293T, cenobamate 1000 µM, read-out: % INa inhibition (peak), single experiments (Table S2)",89.6%
same,IC50,"hNav1.5 [1]; INaIC50 (model script), value entered in C++ script",87.6 µM
same,IC50,"hNav1.5 [1]; apparent IC50 for peak INa inhibition, Hill coefficient nH = 1, room temperature",87.6 µM and < 100 µM
same,"% INa inhibition (peak), single experiments (Table S2)",hNav1.5 [1]; cenobamate 10 µM,9.79% and 10.02% and 5.97%
same,"% INa inhibition (peak), single experiments (Table S2)",hNav1.5 [1]; cenobamate 40 µM,36.42% and 24.23% and 44.79% and 44.54% and 38.53%
same,"% INa inhibition (peak), single experiments (Table S2)",hNav1.5 [1]; cenobamate 100 µM,51.80% and 49.36% and 42.07%
same,"% INa inhibition (peak), single experiments (Table S2)",hNav1.5 [1]; cenobamate 200 µM,64.55% and 87.37% and 54.65% and 52.32% and 72.86%
same,voltage shifts of voltage dependence of activation and steady-state inactivation,"hNav1.5 [1]; cenobamate 200 µM, both activation and inactivation",> 10 mV
same,voltage dependence of peak INa inhibition,"hNav1.5 [1]; cenobamate 200 µM, multiple depolarizing steps",virtually voltage-independent
same,average inhibition of peak INa,"hNav1.5 [1]; cenobamate 200 µM, standard protocol, step at -10 mV, initial set, mean (SD), n = 6",69.53 ± 14.63%
same,"% INa inhibition, single experiments (Table S1)","hNav1.5 [1]; cenobamate 200 µM, step at -10 mV",56.27% and 68.71% and 86.95% and 54.87% and 87.66% and 62.74%
same,"% INa inhibition (peak), single experiments (Table S2)",hNav1.5 [1]; cenobamate 1000 µM,91.76% and 89.36% and 86.34%
same,IC50,neuronal Na+ channels,59 µM
same,protein binding,"[2]; human, ref [5] p.10",61.0%
same,average binding to plasma proteins,"[2]; study YKP3089C018, ref [5] p. 13",~ 60% and 60%
same,inhibition at 1 µM,"hNav1.5 [3]; HEK-293T, cenobamate 1 µM, end of step at 0 mV, read-out: % INa inhibition (late), mean (Table S3)",5.58%
same,inhibition at 10 µM,"hNav1.5 [3]; HEK-293T, cenobamate 10 µM, read-out: % INa inhibition (late), mean (Table S3)",25.4%
same,inhibition at 10 µM,"hNav1.5 [3]; HEK-293T, cenobamate 10 µM, read-out: % INa inhibition (late), single experiments (Table S3)",25.1%
same,inhibition at 40 µM,"hNav1.5 [3]; HEK-293T, cenobamate 40 µM, read-out: % INa inhibition (late), mean (Table S3)",49.3%
same,inhibition at 40 µM,"hNav1.5 [3]; HEK-293T, cenobamate 40 µM, read-out: % INa inhibition (late), single experiments (Table S3)",47.7%
same,inhibition at 100 µM,"hNav1.5 [3]; HEK-293T, cenobamate 100 µM, read-out: % INa inhibition (late), mean (Table S3)",79.5%
same,inhibition at 100 µM,"hNav1.5 [3]; HEK-293T, cenobamate 100 µM, read-out: % INa inhibition (late), single experiments (Table S3)",80.1%
same,inhibition at 200 µM,"hNav1.5 [3]; HEK-293T, cenobamate 200 µM, read-out: % INa inhibition (late), mean (Table S3)",94.4%
same,inhibition at 200 µM,"hNav1.5 [3]; HEK-293T, cenobamate 200 µM, read-out: % INa inhibition (late), single experiments (Table S3)",96.7%
same,IC50,"hNav1.5 [3]; INaLIC50 (model script), value entered in C++ script",46.5 µM
same,IC50,"hNav1.5 [3]; apparent IC50 for late INa inhibition, ATX-II 20 nM or 100 nM, nH = 1",46.5 µM
same,"% INa inhibition (late), single experiments (Table S3)",hNav1.5 [3]; cenobamate 1 µM,9.80% and 4.35% and 2.59%
same,"% INa inhibition (late), single experiments (Table S3)",hNav1.5 [3]; cenobamate 10 µM,27.99% and 16.75% and 31.85%
same,"% INa inhibition (late), single experiments (Table S3)",hNav1.5 [3]; cenobamate 40 µM,42.71% and 49.53% and 57.45%
same,"% INa inhibition (late), single experiments (Table S3)",hNav1.5 [3]; cenobamate 100 µM,91.98% and 72.79% and 79.43% and 73.06%
same,"% INa inhibition (late), single experiments (Table S3)",hNav1.5 [3]; cenobamate 200 µM,94.40% and 94.64% and 86.94% and 99.56%
same,protein binding,[4],43.2%
